Data as given in patent publication US20260199484A1, “PROTAC DEGRADERS OF MLLT1 AND/OR MLLT3” (DARK BLUE THERAPEUTICS LTD, priority 2024, published 2026).

How the values were obtained:
[1] = target: T1, MLLT3 (Mus musculus, UniProt A2AM29); test: MLLT3 degradation assay in NIH/3T3 cells (JESS, 5 h); type: cell-based
T1 construct: endogenous in cells; host or cells: NIH/3T3 (ATCC CRL-1658)
T1 sequence (A2AM29 1-569): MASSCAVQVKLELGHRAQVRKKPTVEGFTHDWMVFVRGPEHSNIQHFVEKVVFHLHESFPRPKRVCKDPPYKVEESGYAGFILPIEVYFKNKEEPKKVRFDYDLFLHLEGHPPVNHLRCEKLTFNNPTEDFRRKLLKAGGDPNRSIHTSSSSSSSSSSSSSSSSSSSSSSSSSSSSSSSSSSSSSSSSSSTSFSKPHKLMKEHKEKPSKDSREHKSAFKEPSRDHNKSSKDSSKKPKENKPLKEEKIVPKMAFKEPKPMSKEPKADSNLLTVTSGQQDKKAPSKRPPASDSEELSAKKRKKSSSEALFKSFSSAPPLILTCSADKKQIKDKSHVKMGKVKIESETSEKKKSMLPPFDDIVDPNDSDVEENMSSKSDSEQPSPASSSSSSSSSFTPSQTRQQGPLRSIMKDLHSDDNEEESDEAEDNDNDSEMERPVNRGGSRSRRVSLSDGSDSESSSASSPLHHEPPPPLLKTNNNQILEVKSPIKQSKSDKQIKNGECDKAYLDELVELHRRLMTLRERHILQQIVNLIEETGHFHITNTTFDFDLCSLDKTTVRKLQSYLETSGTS
Description: MLLT3 degradation efficacy of compounds was tested in an automated chemiluminescent detection system (JESS, Cat #004-650). NIH/3T3 (#CRL-1658, ATCC) were seeded at a density of 0.5 million cells/well in a cell culture treated 6-well cell culture plate in 2 mL of complete medium (DMEM+10% FBS+1× Penicillin-Streptomycin) and incubated at 37° C., 5% CO2. The next day, 10 mM DMSO stocks were prepared, and cells were treated with eight concentrations of test compounds, starting from 100 nM, 5-fold dilution, at a final DMSO concentration of 0.1% and incubated for 5 h at 37° C., 5% CO2. Post incubation, cells were washed with HBSS and lysed in 70 μL of RIPA buffer supplemented with Protease inhibitors (sc-24948; Santa Cruz). Later, protein estimation was done using BCA protein assay kit (23228; Pierce). 4 gg protein lysate (4 μL of 1 μg/μL lysate) was loaded into each well of the JESS cartridge (SM-W004; Bio-techne) and the JESS run was performed using 1:200 dilution of anti-mouse MLLT3 antibody (#47577; CST) and 1:800 dilution of anti-human GAPDH antibody (2118; Cell signaling technology) with anti-rabbit secondary detection module (DM-001; Bio-Techne). Post run, data was analysed using “Compass for SW” software for chemiluminescent detection. Peak fit was done using “dropped lines” method. […]

[2] = tested on: MV4-11 cells; test: MV4-11 cellular proliferative assay, Assay Format B (CTG 2.0, 168 h); type: cell-based; conditions: Homo sapiens, Assay Method B, Table 7, read-out: MV4-11 Antiproliferation IC50
Procedure, shortened: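 Cells seeded at 600/well in IMDM + 10% FBS, incubated overnight, then exposed 168 h (7 days) at 37 °C to 10 concentrations, 3-fold dilutions from 1 uM or 100 nM top dose (0.3% DMSO final). Viability by CTG 2.0 luminescence as % of DMSO control; curves fitted by four-parameter logistic regression.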

## Cc1nn(CCCCCCCC#Cc2cccc3c2CN(C2CCC(=O)NC2=O)C3=O)c2cc(C(=O)Nc3cc4[nH]c([C@H]5CCCN5C)cc4cn3)ccc12 (mixture of isomers) [Example 1, 1-(9-(2-(2,6-dioxopiperidin-3-yl)-1-oxoisoindolin-4-yl)non-8-yn-1-yl)-3-methyl-N-(2-((R)-1-methylpyrrolidin-2-yl)-1H-pyrrolo[3,2-c]pyridin-6-yl)-1H-indazole-6-carboxamide]
[1]
  DC50: 1.6 nM
[1]; NIH3T3, maximum % degradation observed
  Dmax: 85%
[2]
  IC50: 6.5 nM
